From patent publication US6335021B1, “Composition for controlling mood disorders in healthy individuals” (Sigma-Tau HealthScience S.p.A., priority 1997, dated 2002) come the findings set out here.

In this data set the test system is subjects suffering from dysthymic disorders. Kind of data set: Clinical trial of acetyl L-carnitine in patients with mood disorders classifiable as dysthymia (rating scales, alcohol intake, libido, safety). Format: in vivo, human. The note with it: for Hamilton Depression Rating Scale (HDRS): basal 13.9 ± 5.3; for Hamilton Anxiety Rating Scale (HARS): basal 18.6 ± 3.8; for Global Functional (or Social Adaptation) Rating (GFR): basal 63.4 ± 6.6; for alcohol-free days: baseline 6±2. An excerpt: The selection of the patients for this trial consisted in a selection by exclusion, in which the medical history criterion was of paramount importance, with exclusion of all patients presenting episodes of major depression and cyclothymic manifestations classifiable as such on the basis of the DMS criteria.
Subjects were therefore recruited whose mood disorders had been dominated by dysphoric manifestations for at least 4 years, classifiable as dysthymia (DMS IV) and a depressive, irritable, cyclothymic personality or temperament on the basis of DMS IV and AXIS II. A total of 20 patients were selected, 12 males and 8 females, matching up to the above-mentioned criteria, and with a mean age of 26±2 years. Six patients (males) also complained of diminished libido and episodes of impotence, while the 8 female patients complained of loss of libido and anorexia. Eight patients (4 males) reported an increased intake of alcoholic beverages, without clinical complications, in the previous 8 months (mean intake 142±15 g/day) and 6 patients (1 male) reported bulimic episodes resulting in a mean weight gain of 2.1±0.5 kg over the previous 6 months.
Each patient was recruited into the study after 3 repeated visits, at monthly intervals, for the purposes of ruling out other concomitant pathologies or disorders according to DMS IV and AXIS II involving definite abuse of psychotropic substances. The objective neurological examination, current laboratory tests (SMA plus), ECG. BP and chest X-rays were all within normal limits.
None of the patients had been treated with SSRI or tricyclic antidepressants during the previous year. In the course of the month preceding the treatment with acetyl L-carnitine all treatments consisting in administration of benzodiazepines during the daytime were discontinued and only the administration of Lorazepam (2.5 mg) at 9 p.m. was allowed for all patients.
Each patient was administered acetyl L-carnitine 1 g per os twice daily (at breakfast- and lunch-time) for two months.
During the clinical interviews, at entry into the study, on day 45 of administration of acetyl L-carnitine and on day 90 (one month after the end of the treatment), patients were administered the following standardized rating scales: Hamilton Depression Rating Scale (HDRS), Hamilton Anxiety Rating Scale (HARS), Global Functional (or Social Adaptation) Rating (GFR).
For the recording of alcohol intake, a self-administered scale was used to record the alcohol-free days as a percentage of the total and the number of daily alcohol intakes, considering the intake of 10 grams as a single intake, in the month preceding treatment, during the treatment months and in the month following acetyl L-carnitine treatment.

Where [1] appears, read: Day 45 of administration, 1 g per os twice daily.
Where [2] appears, read: Day 90 (one month after the end of treatment).

Regarding `CC(=O)O[C@H](CC(=O)[O-])C[N+](C)(C)C` [acetyl L-carnitine], the “Hamilton Depression Rating Scale (HDRS)” value runs as follows: (Day 45 of administration, 1 g per os twice daily, 20 patients) 9.1 ± 4.8; (Day 90 (one month after the end of the two-month treatment)) 12.8 ± 5.4. Moreover, the “Hamilton Anxiety Rating Scale (HARS)” value runs as follows: under setting [1], 12.8 ± 4.4; under setting [2], 16.9 ± 5.0. The “Global Functional (or Social Adaptation) Rating (GFR)” value stood at 75.3 ± 7.9 under setting [1] and 67.7 ± 6.8 under setting [2]. For the setting “all male patients, 15 days after the start of treatment”, the “symptoms of impotence and diminished libido” value is “disappearance of symptoms of impotence and diminished libido”. Also, the alcohol-free days is reported as 16±3 (during the two months of treatment, on average, self-administered scale) and 8±2 (in the month after treatment). Moreover, where the note is “end of treatment”, the “changes in laboratory tests, BP and ECG as compared to pre-treatment conditions” value is listed as “no significant changes”. Besides, where the note is “end of two-month treatment, 1 g per os twice daily”, the “laboratory tests performed at the end of treatment” value is “normal values”. For the same molecule, the “expression of the depressive behavioural component” value (subjects suffering from dysthymic disorders, conclusion of the clinical trial) was “significantly reduces”. The “mean number of alcohol intakes (10 grams = a single intake)” value (under treatment, as against 7.8±1.2) was 6.1±2.1.
